We go through 38 compounds from the Deep4Chem optical property database.

Molecules are shown by their SMILES.

This data set can be described thus: photoluminescence quantum yield (fraction); solvent given as SMILES.

In the case of `F[B-]12OC(c3ccccc3)=Nc3cccc([n+]31)N=C(c1ccccc1)O2`, the photoluminescence quantum yield (in ClCCl) stood at 0.2.

`CCCCCCc1ccc(-n2c3c4cccc(OC)c4nc(-c4ccc(C)cc4)c3c3c2c2c(-c4ccc(C)cc4)nc4c(OC)cccc4c2n3-c2ccc(CCCCCC)cc2)cc1` gave a photoluminescence quantum yield (in ClC(Cl)Cl) of 0.02.

On to `CN(C)c1ccc(/C=C2\OC(=O)c3cc(N)ccc32)cc1`, for which the photoluminescence quantum yield (in CC#N) worked out at 0.24; the photoluminescence quantum yield (in CC(C)=O) turned out to be 0.26; the photoluminescence quantum yield (in CC(C)CO) was determined as 0.36; the photoluminescence quantum yield (in CC(C)O) was 0.31; the photoluminescence quantum yield (in CCCO) worked out at 0.28; the photoluminescence quantum yield (in CCO) worked out at 0.22. Further, the photoluminescence quantum yield runs as follows: (in CCOC(C)=O) 0.37; (in CCOCC) 0.4; (in CO) 0.22.

Under “in CC#N”, `COc1ccc(-c2nc(-c3ccc(-c4nc(-c5ccc(OC)cc5)c(-c5ccc(OC)cc5)[nH]4)s3)[nH]c2-c2ccc(OC)cc2)cc1` returned a photoluminescence quantum yield of 0.62.

Consider `Oc1ccc2ccccc2c1/C=N/CC/N=C/c1c(O)ccc2ccccc12`, for which the photoluminescence quantum yield (in CC#N) was found to be 0.12.

Take `CC(C)(C)[Si](C)(C)C#CC1=CC2=c3cc(C#C[Si](C)(C)C(C)(C)C)c4nc(C(F)(F)C(F)(F)C(F)(F)F)nc5c(C#C[Si](C)(C)C(C)(C)C)cc(c3c54)C3=CC(C#C[Si](C)(C)C(C)(C)C)=C4N=C(C(F)(F)C(F)(F)C(F)(F)F)N=C1C4C32` (centres undefined): under “in C1CCOC1”, the photoluminescence quantum yield was 0.35.

For the compound `CCN(CC)c1ccc2c(c1)oc(=O)c1c(=O)oc3cc(C#Cc4ccc(C#N)cc4)ccc3c12`, the photoluminescence quantum yield runs as follows: (in CS(C)=O) 0.1; (in ClCCl) 0.69.

As for `CCN(CC)c1ccc2c(-c3ccccc3C(=O)O)c3c([o+]c2c1)/C(=C/Nc1ccccc1)CCC3`, the photoluminescence quantum yield is 0.35 (in CCO), 0.35 (in ClC(Cl)Cl) and 0.6 (in ClCCl).

As for `O=C1c2cc3ccccc3cc2C2=Nc3cccc[n+]3[B-](F)(F)N12`, the photoluminescence quantum yield (in ClCCl) stood at 0.86.

Compound `CCC(C)(C)c1ccc2c(c1)C(CC)(CC)c1cc(-c3ccc(-c4ccc5c(c4)C(CC)(CC)c4cc(C(C)(C)CC)ccc4-5)cc3)ccc1-2` had a photoluminescence quantum yield (in C1CCCCC1) of 1.

For the compound `C[Si](C)(c1cccc2ccccc12)[Si](C)(C)c1c2ccccc2cc2ccccc12`, the photoluminescence quantum yield reads like this: (in C1CCCCC1) 0.67; (in CC#N) 0.21.

`c1ccc(B2Nc3cc4c(cc3-c3occc32)NB(c2ccccc2)c2ccoc2-4)cc1` showed a photoluminescence quantum yield (in ClCCl) of 0.26.

Take `Oc1ccccc1-c1nc2c3ccccc3c3ccccc3c2o1`: the photoluminescence quantum yield (in Cc1ccccc1) was determined as 0.003.

Regarding `CCCCN1C(=O)c2cc(Oc3ccc(C(C)(C)C)cc3)c3c4c(Oc5ccc(C(C)(C)C)cc5)cc5c6c(cc(Oc7ccc(C(C)(C)C)cc7)c(c7c(Oc8ccc(C(C)(C)C)cc8)cc(c2c37)C1=O)c64)C(=O)N(CCCC)C5=O`, the photoluminescence quantum yield (in C1CCOC1) amounted to 0.82, the photoluminescence quantum yield (in Cc1ccccc1) is 0.811, the photoluminescence quantum yield (in ClC(Cl)Cl) amounted to 0.83 and the photoluminescence quantum yield (in ClCCl) is 0.802.

In turn, `Cc1cc2ccccc2c2c1c1ccccc1n2C(=O)OC(C)(C)C` came in with a photoluminescence quantum yield (in ClCCl) of 0.185.

Take `Cc1cc(C)c(C2=C3C=CC(c4ccccc4O)=[N+]3[B-]3(c4ccccc4)Oc4ccccc4-c4ccc2n43)c(C)c1` (centres undefined): the photoluminescence quantum yield (in ClC(Cl)Cl) was 0.65.

Regarding `CCCC(=O)c1c2c(c(C(=O)CCC)c3c1OC(CC(=O)OC)(C(=O)O)O3)OCO2`, the photoluminescence quantum yield came out at 0.25 (in CC#N), 0.12 (in CCO), 0.06 (in CO) and 0.02 (in O).

For `CN(C)c1ccc(-c2ccc(-c3nc(C#N)c(C#N)n3C)cc2)cc1`, the photoluminescence quantum yield (in C1CCCCC1) turned out to be 0.98, the photoluminescence quantum yield (in CC#N) stood at 0.013, the photoluminescence quantum yield (in CO) turned out to be 0.011 and the photoluminescence quantum yield (in ClC(Cl)Cl) came to 0.73.

Under “in ClCCl”, `CCCCn1c(-c2ccc(-c3nnc(-c4cccs4)o3)cc2)nc2c3ccccc3c3ccccc3c21` yielded a photoluminescence quantum yield of 0.62.

For the compound `CCOC(=O)c1cc(C(=O)OCC)c2cc(NC)ccc2n1`, where the note is “in CCO”, the photoluminescence quantum yield was 0.47.

Consider `CCc1ccc(C2=[N+]3C(=Cc4c5ccc(OC)cc5c(-c5ccc(CC)s5)n4[B-]3(F)F)c3ccc(OC)cc32)s1`, for which, for the setting “in ClCCl”, the photoluminescence quantum yield worked out at 0.2.

Regarding `COc1ccc(C#Cc2ccc(C#N)cc2)cc1`, the photoluminescence quantum yield was determined as 0.1 (in C1COCCO1); 0.09 (in CC#N); 0.15 (in CCCCCC); 0.17 (in CCCCCCC); 0.13 (in CCCO); 0.08 (in CCOC(C)=O). Also, the photoluminescence quantum yield was 0.15 (in CS(C)=O), 0.13 (in ClC(Cl)Cl) and 0.12 (in ClCCl).

Turning to `COC(=O)c1ccc(C2=C3C(C)=CC(C)=[N+]3[B-](F)(F)n3c(/C=C/c4c[nH]cn4)cc(C)c32)cc1`, where the note is “in ClC(Cl)Cl”, the photoluminescence quantum yield stood at 0.93.

`CCC1=C(C)C2=Cc3cscc3B(O)N2C1=O` displayed a photoluminescence quantum yield (in CC#N) of 0.97; a photoluminescence quantum yield (in CCCCCC) of 0.18; a photoluminescence quantum yield (in CO) of 0.35; a photoluminescence quantum yield (in CS(C)=O) of 0.87; a photoluminescence quantum yield (in ClC(Cl)Cl) of 0.2.

In turn, `Cc1ccc(C#Cc2ccc(C#Cc3ccc(C#Cc4ccccc4C#N)cc3C#N)cc2C#N)cc1` came in with a photoluminescence quantum yield (in ClC(Cl)Cl) of 0.96.

`F[B-]1(F)n2c(cc3oc4ccccc4c32)C(c2ccc(I)cc2)=C2C=c3oc4ccccc4c3=[N+]21` returned a photoluminescence quantum yield (in ClC(Cl)Cl) of 0.34.

With `O=C(O)c1ccc(C(=O)O)c2cc3ccccc3cc12`, the photoluminescence quantum yield by setting is: (in C1CCOC1) 0.61; (in CN(C)C=O) 0.19.

For `CCCCCCCCn1c2ccc(/C=C/c3ccc(N(c4ccccc4)c4ccccc4)cc3)cc2c2cc3c(cc21)c1cc(/C=C/c2ccc(N(c4ccccc4)c4ccccc4)cc2)ccc1n3CCCCCCCC`, the photoluminescence quantum yield (in Cc1ccccc1) was found to be 0.6.

Consider `N#CC=C(c1ccc(N2c3ccccc3Oc3ccccc32)cc1)c1ccc(N2c3ccccc3Oc3ccccc32)cc1`, for which the photoluminescence quantum yield (in Cc1ccccc1) was 0.371.

Turning to `N#Cc1c(-n2c3ccc(Br)cc3c3cc(Br)ccc32)c(C#N)c(-n2c3ccc(Br)cc3c3cc(Br)ccc32)c(-n2c3ccc(Br)cc3c3cc(Br)ccc32)c1-n1c2ccc(Br)cc2c2cc(Br)ccc21`, under “in Cc1ccccc1”, the photoluminescence quantum yield is 0.67.

With `c1ccc(-c2cc3c(-c4ccccc4)c4cccc5c(-c6ccccc6)cc6c(-c7ccccc7)c7cccc2c7c3c6c54)cc1`, the photoluminescence quantum yield (in ClCCl) was 0.26.

For `CN(C)c1ccc(/C=C/C=C/c2nc3ccccc3o2)cc1`, the photoluminescence quantum yield runs as follows: (in CC#N) 0.0055; (in CCCCCC) 0.0176; (in CCCCO) 0.0045; (in CCCO) 0.0045; (in CCO) 0.0048; (in CN(C)C=O) 0.007. In addition, the photoluminescence quantum yield was determined as 0.0045 (in CO); 0.0078 (in Cc1ccccc1); 0.0048 (in ClCCl); 0.0359 (in OCC(O)CO); 0.0088 (in OCCO).

On to `C[Si](C)(C)[Si](C)(C)c1c2ccccc2cc2ccccc12`, for which the photoluminescence quantum yield runs as follows: (in C1CCCCC1) 0.92; (in CC#N) 0.65.

With `CN(C)c1ccc2nc(/C=C/c3cc4c5c(c3)CCCN5CCC4)c(=O)oc2c1`, the photoluminescence quantum yield reads like this: (in C1CCCCC1) 0.37; (in C1COCCO1) 0.56; (in CC#N) 0.023; (in CC(C)=O) 0.08; (in CCCCCCC) 0.32; (in CCO) 0.008. Further, the photoluminescence quantum yield (in CCOC(C)=O) was determined as 0.39; the photoluminescence quantum yield (in CN(C)C=O) was 0.036; the photoluminescence quantum yield (in CS(C)=O) was determined as 0.03; the photoluminescence quantum yield (in Cc1ccccc1) worked out at 0.55; the photoluminescence quantum yield (in ClC(Cl)Cl) amounted to 0.2; the photoluminescence quantum yield (in ClCCl) is 0.19.

For the setting “in c1cc(-c2cccc(-n3c4ccccc4c4ccccc43)c2)cc(-n2c3ccccc3c3ccccc32)c1”, `CC1(C)c2ccccc2N(c2ccc3c(c2)c2cc(N4c5ccccc5C(C)(C)c5ccccc54)ccc2c2nc4ccccc4nc32)c2ccccc21` registered a photoluminescence quantum yield of 0.84.

For `COc1cc(OC)cc(C2=CC(c3ccccc3)=C(c3ccccc3)C2)c1`, the photoluminescence quantum yield (in ClCCl) came out at 0.0361.

Regarding `O=Cc1ccc(C2=Cc3ccccc3P2(=O)c2ccccc2)cc1` (centres undefined), the photoluminescence quantum yield (in ClCCl) was 0.056.

In the case of `Clc1ccc(-c2cccc3ncc(-c4ccccc4)n23)cc1`, the photoluminescence quantum yield (in ClCCl) is 0.42.
